Results from US20090019557A1, “FGF2-RELATED METHODS FOR DIAGNOSING AND TREATING DEPRESSION” (priority 2005, published 2009).

How the values were obtained:
Sprague-Dawley rats = assay: Morris water maze learning and memory test in adults after early postnatal FGF2; format: in vivo; conditions: 20 ng/g s.c. the day after birth, tested as adults
Protocol: (§1) Methods. Sprague-Dawley rats were injected with either vehicle or FGF2 (20 ng/g, s.c.) the day after birth and sacrificed after Morris water maze testing as adults. We assessed changes in gene expression using both a candidate approach and a gene discovery approach with laser-capture microdissection of the dentate gyrus followed by microarray analyses.

rats [1] = assay: Elevated plus-maze (EPM) and light-dark (LD) anxiety tests after chronic FGF2; format: in vivo; conditions: 5 ng/g i.p. every 48 hours for 3 weeks
Protocol: Anxiety disorders have a high comorbidity with other neuropsychiatric disorders including Major Depression (MD). […] Rats were placed into “high anxiety” (LR) or “low anxiety” (HR) groups based on their behavior in a variety of motor and behavioral tests. Both groups of animals were administered either FGF2 (5 ng/g) or vehicle by intraperitoneal injection every 48 hours for 3 weeks. One day after the last FGF2 injection, all animals were tested in the elevated plus-maze (EPM) and light-dark (LD) anxiety test.
The apparatus for the EPM test is constructed of black Plexiglass with […] (70 cm from the floor, 45 cm long, and 12 cm wide). Illumination is provided by a 40-watt desk lamp facing a wall and placed behind one of the closed arms. The scientists put the animal inside the system. Animals that are less anxious spend more time in the open arms whereas animals that are more anxious spend less time in the open arms.
The LD test is conducted in a 30×60×30-cm Plexiglas shuttle box with a translucent cover. Each box is divided into two equal-sized compartments by a wall with a 12 cm-wide open door. One compartment is painted white and brightly illuminated, and the other is painted black with very dim light. The time each rat spends in each compartment is monitored by rows of five photocells located 2.5 cm above the grid floor of each compartment. […]

[2] = test system: GAP-43, Rgs4, trkb, CCK, SST, Vgf, NCAM expression; assay: Hippocampal (dentate gyrus) gene expression in adult rats after early postnatal FGF2; format: in vivo; conditions: FGF2 20 ng/g s.c. the day after birth
Protocol: as §1
Results. […] Several genes associated with neural plasticity were also found altered in the adult rats, as shown by histochemical and RNA expression assays. For example, expression of GAP-43, Rgs4, trkb, CCK, SST, and Vgf was increased, while expression of NCAM was decreased.

[3] = test system: FGFR2 and FGFR3 exon IIIc:IIIb splice variants; assay: Real time RT-PCR of exon IIIc:IIIb splice variant ratio in frontal cortex, chronic unpredictable stress; format: in vivo, rats; conditions: 5 ng/g i.p. every 48 hours for three weeks
Protocol: Animals. Twenty-four male Sprague-Dawley rats weighing 220-250 g were ordered from Charles River (Wilmington, Mass.) and remained undisturbed for one week to acclimatize to housing conditions. The animals were housed in pairs on a 12 h light-dark cycle (lights on 6:00 A.M.) with food and water available ad libitum. All experiments were conducted in accordance with the NIH Guide for the Care and Use of Animals and the University Committee on the Use and Care of Animals.
FGF2 injection treatments and chronic unpredictable stress (CUS) conditions. […]
Total RNA extraction. […] Using the Bioanalyzer's concentration readings, the samples were normalized to 25 ng/μL of total RNA per subject and stored at −80° C.
cDNA synthesis. cDNA was synthesized using the iScript cDNA Synthesis Kit (Bio-Rad, Hercules, Calif.). […] The double-stranded cDNA solutions were then analyzed for quality and concentration using Invitrogen's Quant-iT PicoGreen dsDNA kit. […] The fluorescently labeled samples were analyzed with a 1420 Victor^2 Multilabel Counter (EG&G Wallac, Wellesley, Mass.) using the basic Fluorescein protocol. […]
Real time RT-PCR primer design. […] Exon sequences were analyzed using NCBI's nucleotide and protein BLAST and were matched with their corresponding protein products within the receptor structures (FIG. 11). […]

rats [4] = assay: Forced swim test (FST) after microinjection; format: in vivo; conditions: versus controls
Source text: (§2) This is indicative of less depression-like behavior in FGF2 animals.
(§3) Again, this is an index of less depression-like behavior. This is also in the same direction as the FGF2 data, consistent with the fact that both FGF2 and NCAM interact with the FGF receptor.
(§4) These observations are nevertheless consistent with the conclusions drawn from the microinjection studies above.

rats [5] = assay: Elevated plus maze (EPM) after acute microinjection; format: in vivo; conditions: versus controls
Source text: as §2, §3, §4

Row | Substance | time on average to find a hidden platform in Morris Water maze test (Sprague-Dawley rats) [s] | performance in learning and memory tests (Sprague-Dawley rats; versus vehicle) | anxiety versus vehicle animals (rats [1]; tested one day after last injection) | anxiety-reducing effect in innately more anxious (LR) rats (rats [1]; LR versus HR rats) | expression of CCK [2] | expression of NCAM [2] | expression of Rgs4 [2] | expression of SST [2] | expression of Vgf [2] | expression of trkb [2] | expression of GAP-43 ([2]; histochemical and RNA expression assays) | effect on magnitude of IIIc:IIIb ratio changes caused by stress [3] | effect on exon IIIc:IIIb ratio ([3]; NS or S group, P>0.1) | immobility in FST (rats [4]) | swimming in FST (rats [4]) | time in the closed arms of EPM (rats [5]) | time in the open arms of EPM (rats [5]) | time in the center quadrant of EPM (rats [5]) | climbing in FST (rats [4])
1 | FGF2: human recombinant FGF2 (Sigma); ligand of the FGF receptor | 20 | significantly better | less anxious | clearly more pronounced | increased | decreased | increased | increased | increased | increased | increased | nor did it significantly affect | did not alter the IIIc:IIIb ratio significantly | less immobility | more swimming | significantly more time | less time | – | –
2 | EVYVVAENQQGKSKA [NCAM] | – | – | – | – | – | – | – | – | – | – | – | – | – | less immobility | – | more time (although not significantly more time) | less time | significantly less time | –
3 | HFKDPKRLY [FGF system peptide inhibitor] | – | – | – | – | – | – | – | – | – | – | – | – | – | more immobility | less swimming | less time | equal time | significantly more time | significantly less climbing
